The test system of test [1] is anti-ribosomal P protein antibodies (IgG) in serum samples. The test is described as follows: Antibody detection by covalent ELISA (peptide covalently linked to plate). The class given is binding, human. The note with it: for healthy donor positive sera (%): 6 healthy donor sera diluted 1:100; for SLE positive sera (%): 8 SLE sera diluted 1:100; for SLE positive sera (positive/tested): SLE sera diluted 1:100; for healthy donor positive sera (positive/tested): healthy donor sera diluted 1:100. On the procedure:
A peptide, prepared as described in example 1, was covalently linked to a 96-wells microtitre plate (carboxy or amine binding plate) using sulfo-N-hydroxysuccinimide and 1-ethyl-3-(3-dimethylaminopropyl)carbodiimide. Peptide coupling took place for 2 h at r.t. The plate was blocked for 1 h with 5% FBS in PBS or with 0.5 M Gly (pH 8). The patients serum samples were diluted 1:100 in FBS buffer and were then loaded onto the plate for 1.5 h at r.t. After plate washings, an anti human-IgG antibody conjugated to the enzyme alkaline phosphatase was added and incubated for 1.5 h at r.t. After washings, the alkaline phosphate substrate p-nitrophenyl phosphate was added to the wells. After the quenching of the enzymatic reaction with 1 M NaOH, the absorbance was evaluated at a wavelength of 405 nm.
(ELISA stands for enzyme-linked immunosorbent assay.)

Test [2] shares this test system. The test is described as follows: Antibody detection by ELISA (peptide adsorbed onto microtitre plate). Type of test: binding, human. On the procedure: A peptide, prepared as described in example 1 and diluted in 0.05 M carbonate buffer (pH 9.6) or in PBS buffer (pH 7.4) was adsorbed onto 96-wells microtitre plates for 4 h at r.t. The wells were treated for 1 h at r.t. with FBS (FBS 5% in PBS). The patients serum samples (diluted 1:100) were then loaded onto the plate and allowed to react overnight at +4° C. After plate washing, an anti human-IgG antibody conjugated to the enzyme alkaline phosphatase was added and incubated for 3 h at r.t. After washings, the alkaline phosphate substrate p-nitrophenyl phosphate was added to the wells. After the quenching of the enzymatic reaction with 1 M NaOH, the absorbance was evaluated at a wavelength of 405 nm.
In total, 25 serum samples of patients suffering from SLE and 68 serum of healthy blood donors were tested by this method.

In test [3] the test system is SLE specific auto-antibodies in patients sera. The note with it: literature; cited from earlier work.

Ends that are not written are not given here.

For GVNVEPFWPGL [Peptide 3], in test [1], the “healthy donor positive sera (%)” value came to 0%, the “SLE positive sera (%)” value was found to be 12%, the “SLE positive sera (positive/tested)” value is 1/8 and the “healthy donor positive sera (positive/tested)” value is 0/6.
LIKAAGVNVE [Peptide 2]: in test [1], the “healthy donor positive sera (%)” value is on record as 0%, the “SLE positive sera (%)” value came out at 37%, the “SLE positive sera (positive/tested)” value is recorded as 3/8 and the “healthy donor positive sera (positive/tested)” value was 0/6.
Regarding “LIKAAGVNVEPFWPGLFAKA [Peptide 1, linear peptide derived from the N-terminal region of human ribosomal P1 protein]”, the “SLE positive sera (%)” value in test [2] (25 SLE sera, diluted 1:100, adsorbed peptide) is 32%; in test [1], 50%. In addition, the “healthy donor positive sera (%)” value is 1% in test [2] (68 healthy blood donor sera, diluted 1:100, adsorbed peptide) and 0% in test [1]. Further, the “number of SLE sera negative to peptide 9 in which anti ribosomal antibodies were detected” value in test [2] (SLE serum negative to peptide 9) is reported as 3. In addition, in test [2] (among the SLE sera positive to peptide 9), the “number of peptide 9-positive SLE sera showing cross-reactivity with peptide 1” value is 4. In addition, the “healthy donor positive sera (positive/tested)” value in test [2] (sera of healthy blood donors, diluted 1:100, adsorbed peptide) is 1/68; in test [1], 0/6. Besides, the “SLE positive sera (positive/tested)” value in test [2] (sera of patients suffering from SLE, diluted 1:100, adsorbed peptide, absorbance 405 nm) is 8/25; in test [1], 4/8.
Regarding “NH2-Lys-Lys-Glu-Glu-Lys-Lys-Glu-Glu-Ser-Glu-Glu-Glu-Asp-Glu-Asp-Met-Gly-Phe-Gly-Leu-Phe-Asp-COOH (H-KKEEKKEESEEEDEDMGFGLFD-OH) [Peptide C-22, peptide comprising the last 22 amino acids of ribosomal P proteins]”, in test [3], the “patients sera in which SLE specific auto-antibodies are detected” value was 10-20%.
Take PFWPGLFAKA [Peptide 4]: in test [1], the “healthy donor positive sera (%)” value came to 0%, the “SLE positive sera (%)” value was 12%, the “SLE positive sera (positive/tested)” value is 1/8 and the “healthy donor positive sera (positive/tested)” value is on record as 0/6.

These data come from patent US20110028409A1, “DETECTION OF ANTI-RIBOSOMAL P PROTEIN ANTIBODIES BY MEANS OF SYNTHETIC PEPTIDES” (TOSCANA BIOMARKERS S.R.L., priority 2009, published 2011).
